“Also recorded” adds a separate entry of the source.
Columns and labels:
Type in all cases: cell-based
[1] = target: T1, rat I7 odorant receptor (Rattus norvegicus, UniProt P23270); assay: Electro-olfactogram (EOG) recording from AdexCAG-I7-IRES-GFP infected rat olfactory epithelium; conditions: for change of EOG odorant response in I7 virus infected vs uninfected animals: responses normalized to amyl acetate, panel of 74 odorants
T1 construct: expressed in transfected cells; host or cells: rat (Sprague-Dawley) olfactory sensory neurons infected in vivo with recombinant adenovirus AdexCAG-I7-IRES-GFP
T1 sequence (P23270 1-327): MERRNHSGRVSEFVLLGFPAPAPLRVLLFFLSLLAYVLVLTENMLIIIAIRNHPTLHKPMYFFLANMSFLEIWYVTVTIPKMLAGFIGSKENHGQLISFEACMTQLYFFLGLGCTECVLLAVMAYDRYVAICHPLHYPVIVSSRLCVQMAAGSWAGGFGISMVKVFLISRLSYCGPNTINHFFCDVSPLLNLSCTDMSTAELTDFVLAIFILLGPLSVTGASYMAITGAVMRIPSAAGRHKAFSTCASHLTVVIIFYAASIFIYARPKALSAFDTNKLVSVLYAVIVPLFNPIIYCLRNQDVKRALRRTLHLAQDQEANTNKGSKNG
Method: Rats (Sprague-Dawley) of various ages and both sexes were used for these experiments. Under anesthesia (ketamine, 90 mg/kg and xylazine, 10 mg/kg, i.p.), 30 μl of rat Ringer solution (in mM, 135, NaCl; 5, I(Cl; 1, CaCl2; 4, MgCl2; 10, HEPES; pH 7.4) containing the AdexCAG-I7-IRES-GFP at a titer of 3×10^9 pfu/ml, and 0.3% fast green dye was slowly injected through the nostril into the right side of the nasal cavity with a short length of thin plastic tubing. The solution was allowed to remain in the nasal cavity. After recovery, the animals were maintained at room temperature with no other treatment until sacrificed.
(§1) The animal was overdosed with anesthetics (Ketamine and xylazine) and decapitated. The head was cut open sagittally and the septum was removed to expose the medial surface of the olfactory turbinates (44 this reference is hereby incorporated by reference in its entirety). The right half of the head was mounted in a wax dish filled with rat Ringer. The medial surface of turbinates was face up and exposed to the air. A continuous stream of humidified clean air was gently blown on the turbinates through tubing to prevent tissue from drying. The opening of the tubing was 8 mm in diameter and placed approximately 10 mm from the turbinate surface.
Odorant solutions were prepared by diluting a 0.5 M stock in DMSO with water. All odorant chemicals were purchased from Aldrich, except Lyral and Lilial which were the kind gift of IFF and Harmon & Reimer Inc. Three milliliters of the odorant solution were placed in a 10 ml glass test tube and capped with a silicon stopper. The concentration of volatile odorant in the 7 cc airspace was allowed to equilibrate for more than 1 hour. All solutions were used within 8 hours. Two 18 gauge needles provided the input and output ports for the odorant containing vapor above the solution. For stimulation a 100 ms pulse of the odorant vapor at 9 psi was injected into the continuous stream of humidified air. The pulse was controlled by a Picospritzer solenoid controlled valve (General Valve). Amyl acetate was used as the reference odorant to control for the variability in responses between animals and during long recording sessions, and was delivered on every sixth trial of odorant stimulation. Three tubes of amyl acetate at 10^−3 M liquid concentration were used alternately in each experiment. The odorant stimulus pathway was cleaned by air between each stimulus presentation. The minimum interval between two adjacent stimuli was 1 minute.
The EOG recording electrode was an Ag/AgCl wire in a capillary glass pipette filled with rat Ringer solution containing 0.6% agarose. The electrode resistance was between 0.5 and 1 MΩ. The recording pipette was placed on the surface of the olfactory epithelium and connected to a differential amplifier (DP-301, Warner Instrument). Placement of the electrode was determined by visualizing GFP fluorescence with a modified stereomicroscope (Kramer Scientific). The EOG potential was observed on a chart recorder, recorded with a DAT tape recorder, and later transferred to computer. For most experiments two electrodes and two amplifiers were used to record EOGs from two different sites of epithelium simultaneously. All experiments were performed at room temperature (22-25° C.).
Odorants were prepared and applied in the following manner. Three milliliters of each odorant solution at a particular concentration were placed in a 10 ml test tube stoppered with a silicone cap, and left for one hour to allow the concentration of volatile odorant in the 7 cc airspace above the solution to equilibrate. Most of the odorants were prepared at a liquid concentration of 10^−2 M to 10^−3 M depending on their relative volatilities. Concentrations of stimulus produced at the olfactory epithelium could not be known, but the system reliably delivered the same amount of stimulus on each trial as there was little variability between responses to successive pulses of the same odorant. […]

[2] = target: T1, rat I7 odorant receptor; assay: Whole-cell patch clamp recording from isolated GFP positive olfactory neurons infected by AdexCAG-I7-IRES-GFP
Method: Whole-cell patch clamp recording was performed on isolated cells with detectable fluorescence (FITC filter). Cell dissociation techniques for olfactory epithelium are described in detail elsewhere (45 this reference is hereby incorporated by reference in its entirety); for these experiments we included only papain treatment and mechanical disruption. Recordings were made with the Axopatch 1D amplifier. […] Data were acquired with the PULSE software (HEKA). Odorants were applied by a constant stream perfusion device (SF77, Warner Instruments) or by pressure pulse. The extracellular solution was the rat Ringer described above. All cells were tested to confirm that they had the normal voltage gated currents before investigating their odorant responses.
The holding potential was −60 mV. The currents varied from 60-250 pA in response to a 50 msec pulse of octanal at approximately 10−4 M, values that are within the range previously reported for rat olfactory neurons (28). […] The odorant induced current reversed around 0 mV.

[3] = system: rat olfactory epithelium; assay: EOG recording from control rat olfactory epithelium (uninfected or infected with GFP-only adenovirus)
Text: as §1
Odorant solutions were prepared by diluting a 0.5 M stock in DMSO with water. All odorant chemicals were purchased from Aldrich, except Lyral and Lilial which were the kind gift of IFF and Harmon & Reimer Inc. Three milliliters of the odorant solution were placed in a 10 ml glass test tube and capped with a silicon stopper. […]
The EOG recording electrode was an Ag/AgCl wire in a capillary glass pipette filled with rat Ringer solution containing 0.6% agarose. […] Placement of the electrode was determined by visualizing GFP fluorescence with a modified stereomicroscope (Kramer Scientific). The EOG potential was observed on a chart recorder, recorded with a DAT tape recorder, and later transferred to computer. […]

For CCCCCCCCCC=O [decyl aldehyde], the “change of EOG odorant response in I7 virus infected vs uninfected animals” value (“change of EOG odorant response” for short) [1] was “increased odorant response”.
For CCCCCCCCC=O [nonyl aldehyde], the “change of EOG odorant response” value [1] was “increased odorant response”.
In the case of CCCCCCCCCCC=O [undecylic aldehyde], the “change of EOG odorant response” value [1] is reported as “not”.
CCCCC/C=C/C=O [trans-2-octenal] was tested, and the “change of EOG odorant response” value [1] was “failed to elicit responses larger than in normal animals”.
With CCCCCCCC=O [octyl aldehyde] the “reversal potential of odorant induced current” value [2] was “around 0 mV”, the “latency of odorant induced current” value ([2]; 50 msec pulse at approximately 10−4 M) was 100 to 250 ms and the odorant induced current ([2]; 50 msec pulse at approximately 10−4 M, holding potential −60 mV) was 60-250 pA. For the same compound, the “cells with odorant induced current” value ([2]; isolated GFP positive neurons) was 5 of 5, the “EOG response in animals infected with adenovirus containing only the GFP gene” value ([3]; GFP-only adenovirus, same CAG promoter, compared with uninfected animals) was “not different from uninfected animals” and the “response ratio of octyl aldehyde to amyl acetate” value ([3]; normal (uninfected) animals, 5×10^−5 M in solution) was 1. The “difference in response magnitude (octyl aldehyde compared to amyl acetate) in infected versus control epithelia” value ([1]; dose-response at various concentrations, FIG. 5c) was ≤ 7 fold, the “relative EOG amplitude after moving electrode from high fluorescence to regions with little or no GFP expression” value ([1]; infected animals) was “significantly reduced” and the “response ratio of octyl aldehyde to amyl acetate” value ([1]; infected animals, odorant concentration in solution 5×10^−5 M) was 7 times. The “EOG response in animals with lower infection rates” value ([1]; infection judged by extent of GFP fluorescence) was “comparably smaller”, the “average EOG response in infected vs. uninfected animals” value ([1]; normalized to amyl acetate, comparatively high odorant concentrations near saturation) was 1.7 times and the “change of EOG odorant response” value [1] was “dramatically greater; also recorded: increased odorant response”.
In the case of CCCCCC=O [hexaldehyde], the “change of EOG odorant response” value [1] is reported as “not”.
With CCCCCCC=O [heptaldehyde] the “change of EOG odorant response” value [1] was “increased odorant response”.
